# Target: GST-hRIPK1 (8-327) (Homo sapiens (Human), UniProt Q13546)
# Assay: Fluorescent Polarization Binding (FP Binding) assay
# Chain of GST-hRIPK1 (8-327) (Q13546 8-327): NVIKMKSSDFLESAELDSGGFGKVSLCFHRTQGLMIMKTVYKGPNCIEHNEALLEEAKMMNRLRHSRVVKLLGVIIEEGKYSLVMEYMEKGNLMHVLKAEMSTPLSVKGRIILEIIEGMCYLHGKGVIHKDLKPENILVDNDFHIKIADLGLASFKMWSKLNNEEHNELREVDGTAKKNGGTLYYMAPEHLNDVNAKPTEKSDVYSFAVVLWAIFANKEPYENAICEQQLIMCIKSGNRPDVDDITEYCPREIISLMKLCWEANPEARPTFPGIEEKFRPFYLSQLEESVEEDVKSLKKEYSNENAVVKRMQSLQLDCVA
row,SMILES,IC50 [nM]
1,"CN1C(=O)[C@H](NC(=O)c2nn(Cc3ccccc3)cc2F)CCc2cccnc21 [Example 111A, (R)-1-benzyl-4-fluoro-N-(9-methyl-8-oxo-6,7,8,9-tetrahydro-5H-pyrido[2,3-b]azepin-7-yl)-1H-pyrazole-3-carboxamide]",1000 to 10000
2,"CN1C(=O)[C@@H](NC(=O)c2nnc(C3(c4ccccc4)CC3)[nH]2)COc2cnccc21 [Example 113, (S)—N-(1-methyl-2-oxo-1,2,3,4-tetrahydropyrido[3,4-b][1,4]oxazepin-3-yl)-5-(1-phenylcyclopropyl)-4H-1,2,4-triazole-3-carboxamide]",0.1 to 1000
3,"CN1C(=O)[C@H](NC(=O)c2nn(Cc3ccccc3)cc2F)CCc2c1cnn2C [Example 114B, (R)-1-benzyl-N-(1,4-dimethyl-5-oxo-1,4,5,6,7,8-hexahydropyrazolo[4,3-b]azepin-6-yl)-4-fluoro-1H-pyrazole-3-carboxamide]",> 3000
4,"CN1C(=O)[C@H](NC(=O)c2nnc(Cc3ccccc3)[nH]2)[C@@H]2C[C@@H]2c2nccnc21 [Example 119A, 5-benzyl-N-((7R,7aR,8aS)-5-methyl-6-oxo-5,6,7,7a,8,8a-hexahydro-cyclopropa[d]pyrazino[2,3-b]azepin-7-yl)-4H-1,2,4-triazole-3-carboxamide]",> 3000
5,"CN1C(=O)[C@H](NC(=O)c2nnc(Cc3ccccc3)s2)[C@@H]2C[C@@H]2c2cccnc21 [Example 120B, 5-benzyl-N-((1aR,2R,8bS)-4-methyl-3-oxo-1,1a,2,3,4,8b-hexahydrocyclopropa-[d]pyrido[2,3-b]azepin-2-yl)-1,3,4-thiadiazole-2-carboxamide]",> 3000
6,"CN1C(=O)[C@@H](NC(=O)c2cc(Oc3ccc(F)cc3F)ccn2)CCc2cccnc21 [Example 121B, (S)-4-(2,4-difluorophenoxy)-N-(9-methyl-8-oxo-6,7,8,9-tetrahydro-5H-pyrido[2,3-b]azepin-7-yl)picolinamide]",0.1 to 1000
7,"CN1C(=O)[C@H](NC(=O)c2nnc(Cc3ccccc3)[nH]2)CC2(CC2)c2cccnc21 [Example 125A, (R)-5-benzyl-N-(9′-methyl-8′-oxo-6′,7′,8′,9′-tetrahydrospiro[cyclopropane-1,5′-pyrido[2,3-b]azepin]-7′-yl)-4H-1,2,4-triazole-3-carboxamide]",> 3000
8,"C[C@H]1Oc2cccnc2N(C)C(=O)[C@H]1NC(=O)c1nn(Cc2ccc(C#N)cc2)cc1F [Example 127, 1-(4-Cyanobenzyl)-N-((2R,3S)-2,5-dimethyl-4-oxo-2,3,4,5-tetrahydropyrido[3,2-b][1,4]oxazepin-3-yl)-4-fluoro-1H-pyrazole-3-carboxamide]",0.1 to 1000
9,"Cc1cc2n(n1)CC[C@H](NC(=O)c1nnc(Cc3ccccc3)[nH]1)C(=O)N2C [Example 129A, (S)-5-Benzyl-N-(2,4-dimethyl-5-oxo-5,6,7,8-tetrahydro-4H-pyrazolo[1,5-a][1,3]diazepin-6-yl)-4H-1,2,4-triazole-3-carboxamide]",0.1 to 1000
10,"Cc1cc2n(n1)CC[C@@H](NC(=O)c1nnc(Cc3ccccc3)[nH]1)C(=O)N2C [Example 129B, (R)-5-Benzyl-N-(2,4-dimethyl-5-oxo-5,6,7,8-tetrahydro-4H-pyrazolo[1,5-a][1,3]diazepin-6-yl)-4H-1,2,4-triazole-3-carboxamide]",> 3000
11,"Cc1cnn2c1N(C)C(=O)[C@H](NC(=O)c1nnc(Cc3ccccc3)[nH]1)CC2 [Example 131B, (R)-5-Benzyl-N-(3,4-dimethyl-5-oxo-5,6,7,8-tetrahydro-4H-pyrazolo[1,5-a][1,3]diazepin-6-yl)-4H-1,2,4-triazole-3-carboxamide]",> 3000
12,"O=C(N[C@H]1COc2cccnc2-n2ccnc21)c1nnc(Cc2ccccc2)[nH]1 [Example 141B, (R)-5-benzyl-N-(6,7-dihydroimidazo[1,2-d]pyrido[3,2-b][1,4]oxazepin-7-yl)-4H-1,2,4-triazole-3-carboxamide]",0.1 to 1000
13,"CN1C(=O)[C@H](NC(=O)c2nnc(Cc3ccccc3)o2)CCc2cccnc21 [Example 148B, (R)-5-benzyl-N-(9-methyl-8-oxo-6,7,8,9-tetrahydro-5H-pyrido[2,3-b]azepin-7-yl)-1,3,4-oxadiazole-2-carboxamide]",1000 to 10000
14,"CN1C(=O)[C@H](NC(=O)c2nn(Cc3cccc(C#N)c3)cc2F)CCc2cccnc21 [Example 152A, (R)-1-(3-cyanobenzyl)-4-fluoro-N-(9-methyl-8-oxo-6,7,8,9-tetrahydro-5H-pyrido[2,3-b]azepin-7-yl)-1H-pyrazole-3-carboxamide]",> 3000
15,"C[C@H]1Oc2cccnc2N(C)C(=O)[C@H]1NC(=O)c1ccn(Cc2ccccc2)n1 [Example 155, 1-Benzyl-N-((2R,3S)-2,5-dimethyl-4-oxo-2,3,4,5-tetrahydropyrido[3,2-b][1,4]oxazepin-3-yl)-1H-pyrazole-3-carboxamide]",0.1 to 1000
16,"CN1C(=O)[C@H](NC(=O)c2nnc(Cc3ccccc3)o2)[C@@H]2C[C@@H]2c2cccnc21 [Example 157A, 5-benzyl-N-((1aR,2R,8bS)-4-methyl-3-oxo-1,1a,2,3,4,8b-hexahydrocyclopropa[d]pyrido[2,3-b]azepin-2-yl)-1,3,4-oxadiazole-2-carboxamide]",> 3000
17,"N#Cc1cccc(Cn2cc(F)c(C(=O)N[C@H]3C(=O)Nc4c(F)cc(F)cc4[C@H]4C[C@H]43)n2)c1 [Example 170B, 1-(3-cyanobenzyl)-N-((1aR,2R,8bS)-5,7-difluoro-3-oxo-1,1a,2,3,4,8b-hexahydrobenzo[b]cyclopropa[d]azepin-2-yl)-4-fluoro-1H-pyrazole-3-carboxamide]",> 3000
18,"O=C(N[C@@H]1C(=O)Nc2c(F)cc(F)cc2[C@H]2C[C@@H]12)c1nnc(Cc2ccccc2)[nH]1 [Example 176, 5-benzyl-N-((1aR,2S,8bS)-5,7-difluoro-3-oxo-1,1a,2,3,4,8b-hexahydrobenzo[b]cyclopropa[d]azepin-2-yl)-4H-1,2,4-triazole-3-carboxamide]",0.1 to 1000
19,"CN1C(=O)[C@H](NC(=O)c2nn(Cc3ccccc3F)cc2F)CCc2nccnc21 [Example 178B, (R)-4-fluoro-1-(2-fluorobenzyl)-N-(5-methyl-6-oxo-6,7,8,9-tetrahydro-5H-pyrazino[2,3-b]azepin-7-yl)-1H-pyrazole-3-carboxamide]",> 3000
20,"CN1C(=O)[C@H](NC(=O)c2nn(Cc3ccccc3F)cc2F)[C@@H]2C[C@@H]2c2nccnc21 [Example 179B, 4-fluoro-1-(2-fluorobenzyl)-N-((7R,7aR,8aS)-5-methyl-6-oxo-5,6,7,7a,8,8a-hexahydrocyclopropa[d]pyrazino[2,3-b]azepin-7-yl)-1H-pyrazole-3-carboxamide]",> 3000

# Now from value to compound:
row,IC50 [nM],SMILES
1,> 3000,"O=C(N[C@H]1C(=O)Nc2ncccc2[C@H]2C[C@H]21)c1nnc(Cc2ccccc2)[nH]1 [Example 110A, 5-benzyl-N-((1aR,2R,8bS)-3-oxo-1,1a,2,3,4,8b-hexahydrocyclopropa[d]pyrido[2,3-b]azepin-2-yl)-4H-1,2,4-triazole-3-carboxamide]"
2,> 3000,"Cn1ncc2c1CC[C@@H](NC(=O)c1nnc(Cc3ccccc3)[nH]1)C(=O)N2 [Example 118A, (R)-5-benzyl-N-(1-methyl-5-oxo-1,4,5,6,7,8-hexahydropyrazolo[4,3-b]azepin-6-yl)-4H-1,2,4-triazole-3-carboxamide]"
3,1000 to 10000,"Cn1ncc2c1CC[C@H](NC(=O)c1nnc(Cc3ccccc3)[nH]1)C(=O)N2 [Example 118B, (S)-5-benzyl-N-(1-methyl-5-oxo-1,4,5,6,7,8-hexahydropyrazolo[4,3-b]azepin-6-yl)-4H-1,2,4-triazole-3-carboxamide]"
4,0.1 to 1000,"Cc1cnn2c1N(C)C(=O)[C@@H](NC(=O)c1nnc(Cc3ccccc3)[nH]1)CC2 [Example 131A, (S)-5-Benzyl-N-(3,4-dimethyl-5-oxo-5,6,7,8-tetrahydro-4H-pyrazolo[1,5-a][1,3]diazepin-6-yl)-4H-1,2,4-triazole-3-carboxamide]"
5,> 3000,"O=C(N[C@@H]1COc2cccnc2-n2ccnc21)c1nnc(Cc2ccccc2)[nH]1 [Example 141A, (S)-5-Benzyl-N-(6,7-dihydroimidazo[1,2-d]pyrido[3,2-b][1,4]oxazepin-7-yl)-4H-1,2,4-triazole-3-carboxamide]"
6,> 3000,"CN1C(=O)[C@H](NC(=O)c2nnc(C3(c4ccccc4)CC3)o2)CCc2cccnc21 [Example 145B, (R)—N-(9-methyl-8-oxo-6,7,8,9-tetrahydro-5H-pyrido[2,3-b]azepin-7-yl)-5-(1-phenylcyclopropyl)-1,3,4-oxadiazole-2-carboxamide]"
7,> 3000,"CN1C(=O)[C@H](NC(=O)c2nn(Cc3ccc(F)cc3)cc2F)[C@@H]2C[C@@H]2c2cccnc21 [Example 156A, 4-fluoro-1-(4-fluorobenzyl)-N-((1aR,2R,8bS)-4-methyl-3-oxo-1,1a,2,3,4,8b-hexahydrocyclopropa[d]pyrido[2,3-b]azepin-2-yl)-1H-pyrazole-3-carboxamide]"
8,0.1 to 1000,"CN1C(=O)[C@@H](NC(=O)c2cc(C#N)n(Cc3ccc(F)cc3)n2)COc2cccnc21 [Example 159, (S)-5-cyano-1-(4-fluorobenzyl)-N-(5-methyl-4-oxo-2,3,4,5-tetrahydropyrido[3,2-b][1,4]oxazepin-3-yl)-1H-pyrazole-3-carboxamide]"
9,> 3000,"CN1C(=O)[C@H](NC(=O)c2nnc(Cc3ccccc3)o2)C2(CC2)Oc2cccnc21 [Example 160B, (R)-5-benzyl-N-(5′-methyl-4′-oxo-4′,5′-dihydro-3′H-spiro[cyclopropane-1,2′-pyrido[3,2-b][1,4]oxazepin]-3′-yl)-1,3,4-oxadiazole-2-carboxamide]"
10,> 3000,"CN1C(=O)[C@H](NC(=O)c2nnc(Cc3ccccc3)o2)[C@@H]2C[C@@H]2c2nccnc21 [Example 177B, 5-benzyl-N-((7R,7aR,8aS)-5-methyl-6-oxo-5,6,7,7a,8,8a-hexahydrocyclopropa[d]pyrazino[2,3-b]azepin-7-yl)-1,3,4-oxadiazole-2-carboxamide]"
11,> 3000,"CN1C(=O)[C@H](NC(=O)c2nnc(C3(c4ccccc4)CC3)o2)CCc2nccnc21 [Example 180B, (R)—N-(5-methyl-6-oxo-6,7,8,9-tetrahydro-5H-pyrazino[2,3-b]azepin-7-yl)-5-(1-phenylcyclopropyl)-1,3,4-oxadiazole-2-carboxamide]"

# Reference: patent publication US10604535B2, “Compounds, compositions and methods” (Denali Therapeutics Inc., priority 2016, dated 2020)
